Data: patent US4048299A, “Anticaries confectionaries and oral health products” (William Wrigley, Jr. Co., priority 1970, dated 1977)

How the values were obtained:
[1] = In vivo caries evaluation, laboratory animals (summary); conditions: one percent level in diet
Text: (§1) Standard laboratory techniques were used to complie the data presented. In each case the aldehyde was incorporated into each specimen's food in a one percent, by weight, quantity, over a period of several weeks. In all cases, caries reduction was noted.
(§2) The aldehydes tested in vivo were pyruvaldehyde, d,1-glyceraldehyde, crystalline dimer, glycolaldehyde, octanaldehyde, nonanaldehyde, decanaldehyde, undecylenic aldehyde, and lauric aldehyde. The polyaldehydes tested were dialdehyde starch, dialdehyde starch 50 percent oxidized, dialdehyde starch 90 percent oxidized, and dialdehyde galactomannan gum.

[2] = system: Lactobacillus casei ATCC 4646; experiment: Acid production inhibition by aldehydes in product vehicles, broth-tube technique; format: cell-based; conditions: 1 to 5 percent aldehyde
Streptococcus spp. KI-R = experiment: as above; format: cell-based; conditions: 1 to 5 percent aldehyde
[3] = system: Mixed Oral Microorganisms; experiment: Acid production inhibition, broth-tube technique; conditions: single agent
Text: The data was compiled through well-known broth tube analysis techniques.
(a)Measured by broth-tube technique.

[4] = In vivo caries evaluation, albino hamster; conditions: Table I, 56 days
Text: as §1, §2
(§3) ^(a) Agents were incorporated in the diet at a 1 percent level.

[5] = system: Lactobacillus casei and Streptococcus sp. FA-1; experiment: Acid-production inhibition by broth-tube assay, 0.1 percent of compound; format: cell-based; conditions: Table X; 0.1 percent of compound; read-out: Activity, Acid-Production Inhibition%
Protocol: ^(a) Activity was measured by broth-tube assay to determine percent
(§4) acid-production inhibition obtained by Lactobacillus casei and
Streptococcus sp. FA-1 in the presence of 0.1 percent of compound.
^(a) Activity was measured by broth-tube assay to determine percent o
as §4
Streptococcus sp. FA-1 in the presence of 0.1% of compound. Symbols

Streptococcus spp. FA-1 = experiment: Growth inhibition of oral microorganisms in vitro, pour plates; format: cell-based; conditions: Table IX
Protocol: (§5) (a)Determined on freshly grown pure cultures. Pour plates were incubated

L. casei = experiment: as above; format: cell-based, Lactobacillus casei; conditions: Table IX
Protocol: as §5

[6] = In vivo caries evaluation, Osborne-Mendel strain 2 rat; parameters: species or system rat (Osborne-Mendel strain 2); conditions: Table I, 90 days
Text: as §1, §2, §3

[7] = in compressed candy tablet, 2 h incubation
[8] = in compressed candy tablet, 5 h incubation
[9] = in compressed candy tablet, 24 h incubation
[10] = in dextrose syrup, 2 h incubation
[11] = in dextrose syrup, 5 h incubation
[12] = in dextrose syrup, 24 h incubation
[13] = in sucrose syrup, 2 h incubation
[14] = in sucrose syrup, 5 h incubation
[15] = in sucrose syrup, 24 h incubation
[16] = in tooth powder (aqueous extract), 2 h incubation
[17] = in tooth powder (aqueous extract), 5 h incubation
[18] = in tooth powder (aqueous extract), 24 h incubation
[19] = in toothpaste (aqueous extract), 2 h incubation
[20] = in toothpaste (aqueous extract), 5 h incubation
[21] = in toothpaste (aqueous extract), 24 h incubation
[22] = Student's test, 95 percent confidence limit
[23] = pour plates incubated 48 - 72 hours

## O=C[C@H](O)CO (racemic) [d,1-Glyceraldehyde]
[1]
  Anticaries effect in laboratory animals: significant anticaries effects
[2]; [7]
  Acid Production Inhibition: 0 Per Cent
[2]; [8]
  Acid Production Inhibition: 0 Per Cent
[2]; [9]
  Acid Production Inhibition: 73 Per Cent
[2]; [10]
  Acid Production Inhibition: 57 Per Cent
[2]; [11]
  Acid Production Inhibition: 33 Per Cent
[2]; [12]
  Acid Production Inhibition: 89 Per Cent
[2]; [13]
  Acid Production Inhibition: 0 Per cent
[2]; [14]
  Acid Production Inhibition: 30 Per cent
[2]; [15]
  Acid Production Inhibition: 79 Per cent
[2]; [16]
  Acid Production Inhibition: 0 Per cent
[2]; [17]
  Acid Production Inhibition: 0 Per cent
[2]; [18]
  Acid Production Inhibition: 84 Per cent
[2]; [19]
  Acid Production Inhibition: 0 Per cent
[2]; [20]
  Acid Production Inhibition: 0 Per cent
[2]; [21]
  Acid Production Inhibition: 0 Per cent
Streptococcus spp. KI-R; [7]
  Acid Production Inhibition: 0 Per Cent
Streptococcus spp. KI-R; [8]
  Acid Production Inhibition: 25 Per Cent
Streptococcus spp. KI-R; [9]
  Acid Production Inhibition: 84 Per Cent
Streptococcus spp. KI-R; [10]
  Acid Production Inhibition: 48 Per Cent
Streptococcus spp. KI-R; [11]
  Acid Production Inhibition: 86 Per Cent
Streptococcus spp. KI-R; [12]
  Acid Production Inhibition: 82 Per Cent
Streptococcus spp. KI-R; in mouthwash, 2 h incubation
  Acid Production Inhibition: 0 Per cent
Streptococcus spp. KI-R; in mouthwash, 5 h incubation
  Acid Production Inhibition: 0 Per cent
Streptococcus spp. KI-R; in mouthwash, 24 h incubation
  Acid Production Inhibition: 86 Per cent
Streptococcus spp. KI-R; [13]
  Acid Production Inhibition: 69 Per cent
Streptococcus spp. KI-R; [14]
  Acid Production Inhibition: 88 Per cent
Streptococcus spp. KI-R; [15]
  Acid Production Inhibition: 86 Per cent
Streptococcus spp. KI-R; [16]
  Acid Production Inhibition: 0 Per cent
Streptococcus spp. KI-R; [17]
  Acid Production Inhibition: 0 Per cent
Streptococcus spp. KI-R; [18]
  Acid Production Inhibition: 0 Per cent
Streptococcus spp. KI-R; [19]
  Acid Production Inhibition: 0 Per cent
Streptococcus spp. KI-R; [20]
  Acid Production Inhibition: 0 Per cent
Streptococcus spp. KI-R; [21]
  Acid Production Inhibition: 0 Per cent
[3]; 0.03 percent
  Acid Production Inhibition: 7%
[3]; 0.04 percent
  Acid Production Inhibition: 12%
[3]; 0.05 percent
  Acid Production Inhibition: 19%
[3]; 0.06 percent
  Acid Production Inhibition: 30%
[3]; 0.07 percent
  Acid Production Inhibition: 40%
[4]; 1 percent in diet, L-2000 control 27.5
  Caries Score, Mean Incidence: 8.0
[4]; 1 percent in diet, L-2000 control 80.9
  Caries Score, Mean Extent: 21.8
[4]; [22]
  Caries Extent Reduction, statistical evaluation: Significant
  Caries Incidence Reduction, statistical evaluation: Significant

## CCCCCCCCCC=O [Decanaldehyde]
[1]
  Anticaries effect in laboratory animals: significant anticaries activity
[5]
  inhibition at 0.1 %: 99 to 100%
[2]; [7]
  Acid Production Inhibition: 0 Per Cent
[2]; [8]
  Acid Production Inhibition: 67 Per Cent
[2]; [9]
  Acid Production Inhibition: 97 Per Cent
[2]; [10]
  Acid Production Inhibition: 67 Per Cent
[2]; [11]
  Acid Production Inhibition: 77 Per Cent
[2]; [12]
  Acid Production Inhibition: 96 Per Cent
[2]; [13]
  Acid Production Inhibition: 0 Per cent
[2]; [14]
  Acid Production Inhibition: 95 Per cent
[2]; [15]
  Acid Production Inhibition: 99 Per cent
[2]; [19]
  Acid Production Inhibition: 80 Per cent
[2]; [20]
  Acid Production Inhibition: 80 Per cent
[2]; [21]
  Acid Production Inhibition: 83 Per cent
Streptococcus spp. KI-R; [7]
  Acid Production Inhibition: 50 Per Cent
Streptococcus spp. KI-R; [8]
  Acid Production Inhibition: 85 Per Cent
Streptococcus spp. KI-R; [9]
  Acid Production Inhibition: 98 Per Cent
Streptococcus spp. KI-R; [10]
  Acid Production Inhibition: 35 Per Cent
Streptococcus spp. KI-R; [11]
  Acid Production Inhibition: 91 Per Cent
Streptococcus spp. KI-R; [12]
  Acid Production Inhibition: 89 Per Cent
Streptococcus spp. KI-R; [13]
  Acid Production Inhibition: 75 Per cent
Streptococcus spp. KI-R; [14]
  Acid Production Inhibition: 98 Per cent
Streptococcus spp. KI-R; [15]
  Acid Production Inhibition: 100 Per cent
Streptococcus spp. KI-R; [19]
  Acid Production Inhibition: 40 Per cent
Streptococcus spp. KI-R; [20]
  Acid Production Inhibition: 100 Per cent
Streptococcus spp. KI-R; [21]
  Acid Production Inhibition: 67 Per cent
Streptococcus spp. FA-1; control 2 × 10^8 to 5 × 10^8
  Bacterial Population, Experimental: 0
Streptococcus spp. FA-1; [23]
  Inhibition (growth): 100%
L. casei; control 8 × 10^8 to 1 × 10^9
  Bacterial Population, Experimental: 4 × 10^2
L. casei; [23]
  Inhibition (growth): > 99.99%

## O=CCO [Glycolaldehyde]
[6]; [22]
  Caries Extent Reduction, statistical evaluation: Significant
[1]
  Anticaries effect in laboratory animals: significant anticaries effects
[2]; [7]
  Acid Production Inhibition: 0 Per Cent
[2]; [8]
  Acid Production Inhibition: 0 Per Cent
[2]; [9]
  Acid Production Inhibition: 64 Per Cent
[2]; [10]
  Acid Production Inhibition: 33 Per Cent
[2]; [11]
  Acid Production Inhibition: 3 Per Cent
[2]; [12]
  Acid Production Inhibition: 85 Per Cent
[2]; [13]
  Acid Production Inhibition: 0 Per cent
[2]; [14]
  Acid Production Inhibition: 0 Per cent
[2]; [15]
  Acid Production Inhibition: 86 Per cent
[2]; [16]
  Acid Production Inhibition: 0 Per cent
[2]; [17]
  Acid Production Inhibition: 0 Per cent
[2]; [18]
  Acid Production Inhibition: 73 Per cent
[2]; [19]
  Acid Production Inhibition: 0 Per cent
[2]; [20]
  Acid Production Inhibition: 0 Per cent
[2]; [21]
  Acid Production Inhibition: 0 Per cent
Streptococcus spp. KI-R; [7]
  Acid Production Inhibition: 0 Per Cent
Streptococcus spp. KI-R; [8]
  Acid Production Inhibition: 0 Per Cent
Streptococcus spp. KI-R; [9]
  Acid Production Inhibition: 73 Per Cent
Streptococcus spp. KI-R; [10]
  Acid Production Inhibition: 57 Per Cent
Streptococcus spp. KI-R; [11]
  Acid Production Inhibition: 81 Per Cent
Streptococcus spp. KI-R; [12]
  Acid Production Inhibition: 77 Per Cent
Streptococcus spp. KI-R; in mouthwash, 2 h incubation
  Acid Production Inhibition: 0 Per cent
Streptococcus spp. KI-R; in mouthwash, 5 h incubation
  Acid Production Inhibition: 0 Per cent
Streptococcus spp. KI-R; in mouthwash, 24 h incubation
  Acid Production Inhibition: 78 Per cent
Streptococcus spp. KI-R; [13]
  Acid Production Inhibition: 19 Per cent
Streptococcus spp. KI-R; [14]
  Acid Production Inhibition: 85 Per cent
Streptococcus spp. KI-R; [15]
  Acid Production Inhibition: 84 Per cent
Streptococcus spp. KI-R; [16]
  Acid Production Inhibition: 0 Per cent
Streptococcus spp. KI-R; [17]
  Acid Production Inhibition: 0 Per cent
Streptococcus spp. KI-R; [18]
  Acid Production Inhibition: 0 Per cent
Streptococcus spp. KI-R; [19]
  Acid Production Inhibition: 0 Per cent
Streptococcus spp. KI-R; [20]
  Acid Production Inhibition: 0 Per cent
Streptococcus spp. KI-R; [21]
  Acid Production Inhibition: 0 Per cent

## CC(=O)C=O [Pyruvaldehyde]
[6]; 1 percent in diet, L-2000 control 15.08 (pyruvaldehyde test), 13.94 (glycolaldehyde test)
  Caries Score, Mean Incidence: 5.95
[6]; 1 percent in diet, L-2000 control 38.80 (pyruvaldehyde test), 35.38 (glycolaldehyde test)
  Caries Score, Mean Extent: 14.55
[6]; [22]
  Caries Extent Reduction, statistical evaluation: Significant
  Caries Incidence Reduction, statistical evaluation: Significant
[1]
  Anticaries effect in laboratory animals: significant anticaries effects
[2]; [7]
  Acid Production Inhibition: 0 Per Cent
[2]; [8]
  Acid Production Inhibition: 0 Per Cent
[2]; [9]
  Acid Production Inhibition: 75 Per Cent
[2]; [10]
  Acid Production Inhibition: 52 Per Cent
[2]; [11]
  Acid Production Inhibition: 33 Per Cent
[2]; [12]
  Acid Production Inhibition: 88 Per Cent
[2]; in hard candy, 2 h incubation
  Acid Production Inhibition: 0 Per Cent
[2]; in hard candy, 5 h incubation
  Acid Production Inhibition: 22 Per Cent
[2]; in hard candy, 24 h incubation
  Acid Production Inhibition: 90 Per Cent
[2]; [13]
  Acid Production Inhibition: 0 Per cent
[2]; [14]
  Acid Production Inhibition: 20.0 Per cent
[2]; [15]
  Acid Production Inhibition: 89.6 Per cent
[2]; [16]
  Acid Production Inhibition: 0 Per cent
[2]; [17]
  Acid Production Inhibition: 0 Per cent
[2]; [18]
  Acid Production Inhibition: 71 Per cent
[2]; [19]
  Acid Production Inhibition: 0 Per cent
[2]; [20]
  Acid Production Inhibition: 0 Per cent
[2]; [21]
  Acid Production Inhibition: 0 Per cent
Streptococcus spp. KI-R; [7]
  Acid Production Inhibition: 0 Per Cent
Streptococcus spp. KI-R; [8]
  Acid Production Inhibition: 30 Per Cent
Streptococcus spp. KI-R; [9]
  Acid Production Inhibition: 83 Per Cent
Streptococcus spp. KI-R; [10]
  Acid Production Inhibition: 57 Per Cent
Streptococcus spp. KI-R; [11]
  Acid Production Inhibition: 86 Per Cent
Streptococcus spp. KI-R; [12]
  Acid Production Inhibition: 82 Per Cent
Streptococcus spp. KI-R; in hard candy, 2 h incubation
  Acid Production Inhibition: 40 Per Cent
Streptococcus spp. KI-R; in hard candy, 5 h incubation
  Acid Production Inhibition: 87 Per Cent
Streptococcus spp. KI-R; in hard candy, 24 h incubation
  Acid Production Inhibition: 86 Per Cent
Streptococcus spp. KI-R; in mouthwash, 2 h incubation
  Acid Production Inhibition: 0 Per cent
Streptococcus spp. KI-R; in mouthwash, 5 h incubation
  Acid Production Inhibition: 0 Per cent
Streptococcus spp. KI-R; in mouthwash, 24 h incubation
  Acid Production Inhibition: 86 Per cent
Streptococcus spp. KI-R; [13]
  Acid Production Inhibition: 37.5 Per cent
Streptococcus spp. KI-R; [14]
  Acid Production Inhibition: 82.3 Per cent
Streptococcus spp. KI-R; [15]
  Acid Production Inhibition: 86.4 Per cent
Streptococcus spp. KI-R; [16]
  Acid Production Inhibition: 0 Per cent
Streptococcus spp. KI-R; [17]
  Acid Production Inhibition: 0 Per cent
Streptococcus spp. KI-R; [18]
  Acid Production Inhibition: 0 Per cent
Streptococcus spp. KI-R; [19]
  Acid Production Inhibition: 0 Per cent
Streptococcus spp. KI-R; [20]
  Acid Production Inhibition: 0 Per cent
Streptococcus spp. KI-R; [21]
  Acid Production Inhibition: 0 Per cent
[3]; 0.005 percent
  Acid Production Inhibition: 5%
[3]; 0.007 percent
  Acid Production Inhibition: 5%
[3]; 0.009 percent
  Acid Production Inhibition: 7%
[3]; 0.011 percent
  Acid Production Inhibition: 7%
other
  Solubility: water soluble
